The source of these data is patent publication US20240101538A1, “PROTEIN-PROTEIN INTERACTION MODULATORS OF AURORA KINASE A AND THEIR USE IN THE PREVENTION AND/OR TREATMENT OF CANCER” (EBERHARD KARLS UNIVERSITÄT TÜBINGEN, priority 2020, published 2024).

The target of one experiment is MYC-AURKA interaction (Mus musculus (Mouse), UniProt P97477). As to the kind of experiment: Proximity ligation assay (PLA) for MYC and AURKA in NMP53^−/− cells. It counts as cell-based, murine. As to conditions: 24 h after treatment. The method, then:
To examine whether this MYC degradation is associated with MYC-AURKA PPI disruption, the inventors performed proximity ligation assays (PLA) in NMP53^−/− cells. For Proximity Ligation Assay (PLA), 50 000 cells were seeded on 12 mm glass slides placed in 6 well plates. On the next day, the cells were treated with the indicated compounds or the corresponding DMSO concentration for 2 h (compound 2c [N-(5-((4-(1H-pyrazole-4-yl)benzyl)amino)-2-fluorophenyl)-3-(furan-2-yl)propanamide] and compound 3a [N-(2-fluoro-5-((4-(1-methyl-1H-pyrazole-4-yl)benzyl)amino)phenyl)-3-(furan-2-yl)propanamide]) or 24 h (alisertib) and fixed for 10 min in 100% MeOH at −20° C. The glass slides were removed from the 6 well plates and the cells permeabilized with TBS+0.3% Triton X-100 for 5 min. After washing with PBS and blocking with 5% BSA in TBS+0.05% Tween for 30 min, the slides were incubated with MYC (Abeam ab32072, 1:200) and AURKA (Abcam ab13824, 1:200) specific antibodies in 1% BSA in TBS+0.05% Tween for 120 min at RT and washed 3 times with PBS for 5 min, wherein the MYC/TPX2 and AURKA specific antibodies are derived from a different species. After a 20 min pre-incubation of two PLA probes, directed against either species of the MYC/TPX2 and AURKA specific antibodies, at RT (DUO92001 and DUO92005 Sigma Aldrich, diluted 1:10 in 1% BSA in TBS+0.05% Tween), the slides were incubated with the probes for 60 min at 37° C. in a humidified chamber. The slides were washed 3 times with 1× wash buffer A (Sigma Aldrich DUO82049) for 5 min and incubated with the ligase solution (ligase diluted 1:40 in 5× ligase buffer and ddH2O, Sigma Aldrich DUO92008) for 60 min at 37° C. in a humidified chamber. […] The foci per cell were counted in a way that the cytoplasmic foci are counted to the cell with the closest nucleus (DAPI). Significance was calculated with the GraphPad Prism 8.4.0 software (GraphPad Software, La Jolla, CA) by using the nonparametric Mann Whitney test.

Another experiment deals with late stage HCC. The note with it: patients with late stage HCC, on average; cited from earlier work.

MYC-AURKA interaction, sequence (P97477 whole entry): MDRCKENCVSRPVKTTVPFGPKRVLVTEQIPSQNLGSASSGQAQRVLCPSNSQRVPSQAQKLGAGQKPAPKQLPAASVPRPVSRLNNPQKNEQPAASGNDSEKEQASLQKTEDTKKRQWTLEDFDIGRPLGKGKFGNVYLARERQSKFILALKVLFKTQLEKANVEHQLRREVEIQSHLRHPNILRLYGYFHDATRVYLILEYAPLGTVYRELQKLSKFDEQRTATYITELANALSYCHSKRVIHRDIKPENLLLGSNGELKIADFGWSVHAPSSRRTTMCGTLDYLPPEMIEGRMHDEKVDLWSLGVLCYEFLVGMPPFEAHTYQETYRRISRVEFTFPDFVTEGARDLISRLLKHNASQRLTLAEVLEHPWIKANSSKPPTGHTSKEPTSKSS

Turning to `COc1cc(Nc2ncc3c(n2)-c2ccc(Cl)cc2C(c2c(F)cccc2OC)=NC3)ccc1C(=O)O` [alisertib, reference compound], the “reduction of the MYC-AURKA interaction compared to DMSO” value on MYC-AURKA interaction was 60%. With `CNC(=O)c1cc(Oc2ccc(NC(=O)Nc3ccc(Cl)c(C(F)(F)F)c3)cc2)ccn1` [sorafenib], the prolonged survival in the experiment with late stage HCC is on record as 2.8 months.
